The results in this text go back to US9828362B2, “1,4-disubstituted imidazole derivative” (Sumitomo Dainippon Pharma Co., Ltd., priority 2015, dated 2017).

The test system of assay [1] is HCT-116 tumor. The assay is described as follows: Anti-tumor effect to HCT-116 tumor-bearing mouse. Particulars: nude mouse, oral, dosage 30 mg/kg, administration period 17 days, tumor volume. The assay is classed as in vivo. The source says:
The present compound can be used to evaluate the anti-tumor effect thereof. A 4 to 7-week-old nude mouse (BALB/cAnNCrj-nu/nu, female, CHARLES RIVER LABORATORIES JAPAN, INC.) received intradermal transplantation of HCT-116 cells (ATCC) in an amount of 3×10^6 cells/mouse around the ventral portion. The engraftment of HCT-116 cells was observed 5 to 14 days after the transplantation, and then each compound suspended in a solvent such as 0.5% methylcellulose solution was orally administrated to the mouse in a dose of 1 to 100 mg/kg one to twice daily. The tumor volume was measured over time after the administration. to evaluate the effect for reducing the tumor volume by the administration of each compound. The tumor volume can be calculated from the minor axis and the major axis of the tumor measured with a digital caliper (Mitutoyo) according to the following formula: Tumor volume [mm^3]=0.5×minor axis [mm]×(major axis [ram])^2
The tumor volume is control administration group treated. with only a solvent such as 0.5% methylcellulose solution was compared with that of the present compound administration group, and T/C value was calculated according the following formula to evaluate the anti-tumor effect of the present compound. […]

Assay [2] concerns HCT-116 cells. Kind of assay: Test for inhibiting sphere-forming ability of cancer cells (in the presence of BSA). The assay is classed as cell-based. To be noted: Homo sapiens, 96 h, Ultra-Low Attachment plate, medium with 5% bovine serum albumin (BSA), cultured 4 days, CellTiter-Glo, read-out: Sphere IC50 value (concentration for 50% inhibition of cell proliferation). Here is the method: HCT-116 cells were available from the American Type Culture Collection (ATCC). HCT-116 cells were cultured at 37° C. and 5% CO2 using the McCoy's 5a medium containing 10% fetal bovine serum (FBS) and 1% penicillin/streptomycin. […] The test compounds were added into each well to adjust the final concentration of DMSO to 0.1%, and the cells were cultured for 4 days.
In general terms: Cellular ATP, detected with luciferase, serves as a proxy for viable cell number.

pIC50: −log10 of the molar value.

Turning to `Nc1cc(C(=O)Nc2cn(Cc3cc(F)c(F)c(F)c3)cn2)cnc1CO` [Example 46], in assay [1], the “T/C (%)” value is given as 91%. As for `CC(C)(O)c1ccc(/C=C/C(=O)Nc2cn(Cc3cccc(C(F)(F)F)c3)cn2)cn1` [Example 53, (2E)-3-[6-(2-Hydroxypropan-2-yl)pyridin-3-yl]-N-{1-[3-(trifluoromethyl)benzyl]-1H-imidazol-4-yl}prop-2-enamide], the pIC50 in assay [2] is less than 5.00.
